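Five compound concentrations were applied to cells in 96-well plates for 48 hours; endpoints were derived by simple linear interpolation of the resulting dose-response curve. Definition used: TGI = concentration required for complete inhibition of growth.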
Key:
Test in all cases: DTP human tumour cell line panel, 48 h
786-0 renal = tested on: 786-0 renal
A498 renal = tested on: A498 renal
A549 NSCLC = tested on: A549 NSCLC
ACHN renal = tested on: ACHN renal
BT-549 breast = tested on: BT-549 breast
CAKI-1 renal = tested on: CAKI-1 renal
COLO 205 colon = tested on: COLO 205 colon
DU-145 prostate = tested on: DU-145 prostate
EKVX NSCLC = tested on: EKVX NSCLC
HCT-116 colon = tested on: HCT-116 colon
HCT-15 colon = tested on: HCT-15 colon
HOP-62 NSCLC = tested on: HOP-62 NSCLC
HOP-92 NSCLC = tested on: HOP-92 NSCLC
HS 578T breast = tested on: HS 578T breast
HT29 colon = tested on: HT29 colon
IGROV1 ovarian = tested on: IGROV1 ovarian
K-562 leukemia = tested on: K-562 leukemia
KM12 colon = tested on: KM12 colon
LOX IMVI melanoma = tested on: LOX IMVI melanoma
M14 melanoma = tested on: M14 melanoma
MALME-3M melanoma = tested on: MALME-3M melanoma
MCF7 breast = tested on: MCF7 breast
MDA-MB-231 breast = tested on: MDA-MB-231 breast
MDA-MB-435 = tested on: MDA-MB-435
MDA-N = tested on: MDA-N
NCI-H226 lung = tested on: NCI-H226 lung
NCI-H23 lung = tested on: NCI-H23 lung
NCI-H460 lung = tested on: NCI-H460 lung
NCI-H522 lung = tested on: NCI-H522 lung
NCI/ADR-RES ovarian = tested on: NCI/ADR-RES ovarian
OVCAR-3 ovarian = tested on: OVCAR-3 ovarian
OVCAR-4 ovarian = tested on: OVCAR-4 ovarian
OVCAR-5 ovarian = tested on: OVCAR-5 ovarian
OVCAR-8 ovarian = tested on: OVCAR-8 ovarian
PC-3 prostate = tested on: PC-3 prostate
RPMI-8226 leukemia = tested on: RPMI-8226 leukemia
RXF 393 renal = tested on: RXF 393 renal
SF-268 CNS = tested on: SF-268 CNS
SF-295 CNS = tested on: SF-295 CNS
SF-539 CNS = tested on: SF-539 CNS
SK-MEL-2 melanoma = tested on: SK-MEL-2 melanoma
SK-MEL-28 melanoma = tested on: SK-MEL-28 melanoma
SK-MEL-5 melanoma = tested on: SK-MEL-5 melanoma
SK-OV-3 ovarian = tested on: SK-OV-3 ovarian
SN12C renal = tested on: SN12C renal
SNB-19 CNS = tested on: SNB-19 CNS
SNB-75 CNS = tested on: SNB-75 CNS
SR leukemia = tested on: SR leukemia
SW-620 colon = tested on: SW-620 colon
T-47D breast = tested on: T-47D breast
TK-10 renal = tested on: TK-10 renal
U251 CNS = tested on: U251 CNS
UACC-257 melanoma = tested on: UACC-257 melanoma
UACC-62 melanoma = tested on: UACC-62 melanoma
UO-31 renal = tested on: UO-31 renal
CCRF-CEM leukemia = tested on: CCRF-CEM leukemia
HCC-2998 colon = tested on: HCC-2998 colon
HL-60(TB) leukemia = tested on: HL-60(TB) leukemia
MOLT-4 leukemia = tested on: MOLT-4 leukemia

In the case of `CC(C)(N)C(=O)N[C@@H]1C(=O)N2[C@@H]1SC(C)(C)[C@@H]2C(=O)O`, the TGI (786-0 renal) is reported as > 100 µM, the TGI (A498 renal) is reported as > 100 µM and the TGI (A549 NSCLC) is reported as > 100 µM. The TGI (ACHN renal) was > 100 µM, the TGI (BT-549 breast) was > 100 µM and the TGI (CAKI-1 renal) was > 100 µM. For the same compound, the TGI (COLO 205 colon) was > 100 µM, the TGI (DU-145 prostate) was > 100 µM and the TGI (EKVX NSCLC) was > 100 µM. For the same compound, the TGI (HCT-116 colon) was > 100 µM, the TGI (HCT-15 colon) was > 100 µM and the TGI (HOP-62 NSCLC) was > 100 µM. For the same compound, the TGI (HOP-92 NSCLC) was > 100 µM, the TGI (HS 578T breast) was > 100 µM and the TGI (HT29 colon) was > 100 µM. The TGI (IGROV1 ovarian) was > 100 µM, the TGI (K-562 leukemia) was > 100 µM and the TGI (KM12 colon) was > 100 µM. The TGI (LOX IMVI melanoma) was > 100 µM, the TGI (M14 melanoma) was > 100 µM and the TGI (MALME-3M melanoma) was > 100 µM. For the same compound, the TGI (MCF7 breast) was > 100 µM, the TGI (MDA-MB-231 breast) was > 100 µM and the TGI (MDA-MB-435) was > 100 µM. For the same compound, the TGI (MDA-N) was > 100 µM, the TGI (NCI-H226 lung) was > 100 µM and the TGI (NCI-H23 lung) was > 100 µM. The TGI (NCI-H460 lung) was > 100 µM, the TGI (NCI-H522 lung) was > 100 µM and the TGI (NCI/ADR-RES ovarian) was > 100 µM. The TGI (OVCAR-3 ovarian) was > 100 µM, the TGI (OVCAR-4 ovarian) was > 100 µM and the TGI (OVCAR-5 ovarian) was > 100 µM. The TGI (OVCAR-8 ovarian) was > 100 µM, the TGI (PC-3 prostate) was > 100 µM and the TGI (RPMI-8226 leukemia) was > 100 µM. For the same compound, the TGI (RXF 393 renal) was > 100 µM, the TGI (SF-268 CNS) was > 100 µM and the TGI (SF-295 CNS) was > 100 µM. The TGI (SF-539 CNS) was > 100 µM, the TGI (SK-MEL-2 melanoma) was > 100 µM and the TGI (SK-MEL-28 melanoma) was > 100 µM. The TGI (SK-MEL-5 melanoma) was > 100 µM, the TGI (SK-OV-3 ovarian) was > 100 µM and the TGI (SN12C renal) was > 100 µM. For the same compound, the TGI (SNB-19 CNS) was > 100 µM, the TGI (SNB-75 CNS) was > 100 µM and the TGI (SR leukemia) was > 100 µM. The TGI (SW-620 colon) was > 100 µM, the TGI (T-47D breast) was > 100 µM and the TGI (TK-10 renal) was > 100 µM. For the same compound, the TGI (U251 CNS) was > 100 µM, the TGI (UACC-257 melanoma) was > 100 µM and the TGI (UACC-62 melanoma) was > 100 µM. For the same compound, the TGI (UO-31 renal) was > 100 µM.

With `CSc1nc(SC)c2c(C)cn(C3OC(C)C(O)C(O)C3O)c2n1` (stereo unspecified) the TGI (786-0 renal) was > 100 µM, the TGI (A498 renal) was 74.4 µM and the TGI (A549 NSCLC) was > 100 µM. For the same compound, the TGI (ACHN renal) was > 100 µM, the TGI (BT-549 breast) was > 100 µM and the TGI (CCRF-CEM leukemia) was > 100 µM. For the same compound, the TGI (COLO 205 colon) was > 100 µM, the TGI (DU-145 prostate) was > 100 µM and the TGI (EKVX NSCLC) was > 100 µM. The TGI (HCC-2998 colon) was > 100 µM, the TGI (HCT-116 colon) was > 100 µM and the TGI (HCT-15 colon) was > 100 µM. For the same compound, the TGI (HL-60(TB) leukemia) was > 100 µM, the TGI (HOP-62 NSCLC) was > 100 µM and the TGI (HOP-92 NSCLC) was 83.4 µM. For the same compound, the TGI (HS 578T breast) was > 100 µM, the TGI (HT29 colon) was > 100 µM and the TGI (IGROV1 ovarian) was > 100 µM. The TGI (KM12 colon) was > 100 µM, the TGI (LOX IMVI melanoma) was > 100 µM and the TGI (M14 melanoma) was > 100 µM. For the same compound, the TGI (MALME-3M melanoma) was > 100 µM, the TGI (MCF7 breast) was > 100 µM and the TGI (MDA-MB-231 breast) was > 100 µM. For the same compound, the TGI (MDA-MB-435) was > 100 µM, the TGI (MDA-N) was > 100 µM and the TGI (MOLT-4 leukemia) was > 100 µM. For the same compound, the TGI (NCI-H226 lung) was > 100 µM, the TGI (NCI-H23 lung) was > 100 µM and the TGI (NCI-H460 lung) was > 100 µM. The TGI (NCI-H522 lung) was > 100 µM, the TGI (NCI/ADR-RES ovarian) was > 100 µM and the TGI (OVCAR-3 ovarian) was > 100 µM. The TGI (OVCAR-4 ovarian) was > 100 µM, the TGI (OVCAR-5 ovarian) was > 100 µM and the TGI (OVCAR-8 ovarian) was > 100 µM. For the same compound, the TGI (PC-3 prostate) was > 100 µM, the TGI (RPMI-8226 leukemia) was > 100 µM and the TGI (RXF 393 renal) was > 100 µM. For the same compound, the TGI (SF-268 CNS) was > 100 µM, the TGI (SF-295 CNS) was > 100 µM and the TGI (SF-539 CNS) was > 100 µM. The TGI (SK-MEL-2 melanoma) was > 100 µM, the TGI (SK-MEL-28 melanoma) was > 100 µM and the TGI (SK-MEL-5 melanoma) was > 100 µM. For the same compound, the TGI (SK-OV-3 ovarian) was > 100 µM, the TGI (SN12C renal) was > 100 µM and the TGI (SNB-19 CNS) was > 100 µM. For the same compound, the TGI (SNB-75 CNS) was > 100 µM, the TGI (SR leukemia) was > 100 µM and the TGI (SW-620 colon) was > 100 µM. For the same compound, the TGI (T-47D breast) was 84.7 µM, the TGI (TK-10 renal) was > 100 µM and the TGI (U251 CNS) was > 100 µM. For the same compound, the TGI (UACC-62 melanoma) was > 100 µM and the TGI (UO-31 renal) was > 100 µM.
